Data set [1] relates to PHA-stimulated splenocytes. Nature of the data set: Proliferative response of PHA-stimulated splenocytes (MTT assay). Format: cell-based. The following applies: PHA 5 μg/ml, 72 hr; compounds at 5 μM (method says 10 μM); ratio of O.D. versus vehicle control. The protocol: Immunomodulatory effects of the synthesized curcumin conjugates on the proliferative response of PHA-stimulated splenocytes were evaluated. The effect of curcumin and its amino acid conjugates on splenocyte viability and proliferation in response to a T cell miotgen (Phytohaemagglutinin; PHA) was evaluated using the MTT assay. Freshly prepared splenocytes (1×10^6 cells/200 μl/well) were cultured in a 96-well U-bottom microtiter plate (Nunc) in complete medium. Cells were treated with tested compounds at a final concentration of 10 μM, vehicle (DMSO) or left untreated in triplicate then incubated at 37° C. and 5% CO2. When testing the immunoregulatory effects of the compounds on splenocyte stimulation, PHA (5 μg/ml) was added to the culture media to induce T cell proliferation. The proliferative response to PHA+vehicle and vehicle alone served as controls. After 72 hr, media were removed after pelleting the cells by centrifugation and MTT salt solution (5 mg/ml) was added into each well then incubated at 37° C. for 4 h. Afterwards, formazan crystals were dissolved by adding 150 μl 10% sodium dodecyl sulfate (SDS). Absorbance was measured with a spectrophotometer at 570 nm and reference wavelength of 690 nm.
Splenocyte stimulation index was determined as the ratio of O.D. values in tested compounds versus vehicle control cultures.
Background: Tetrazolium dyes change colour on reduction, which living cells bring about.

The test system of data set [2] is lipopolysaccharide-stimulated peritoneal macrophages. Description: Production of nitric oxide by lipopolysaccharide-stimulated peritoneal macrophages (Greiss reagent). Format: cell-based. On the set-up: Potency (%): % inhibition of nitric oxide production relative to lipopolysaccharide-stimulated macrophages: concentration or dose not given beside the values. The note with it: LPS-stimulated peritoneal macrophages; for Nitric oxide (nitrite) concentration, μM (average ± SD): 24 h, nitrite by Greiss reagent. The protocol:
The effects of the synthesized curcumin conjugates on the production of nitric oxide (μM) by lipopolysaccharide-stimulated peritoneal macrophages were evaluated.
Two milliliters of macrophage cells were seeded in 12-well tissue culture plates in nitrite-free medium supplemented with 0.1% bovine serum albumin and incubated at 37° C. LPS±epinephrine, norepinephrine, or dopamine at […] concentrations was added to some wells. The concentrations of LPS used ranged from 0.5 to 10 ng/ml. After incubation for 24 h, supernatants were collected for measuring nitric oxide (NO) by spectrophotometry. The production of NO was determined from the accumulation of nitrite (NO2), the metabolic end product of NO metabolism, in the medium using the Greiss reagent. About equal volumes (100 μl) of sample and Greiss reagent (1:1 mixture of 1% sulfanilamide in 5% phosphoric acid, and 0.1% a-naphthylamine in distilled water) were mixed and incubated at room temperature for 15 min, and absorbance was measured at 532 nm on a spectrophotometer.

Data set [3] concerns Salmonella typhi ATCC19430. Nature of the data set: Antimicrobial MIC, agar dilution. Format: cell-based. The note with it: Salmonella enterica, read-out: Minimum inhibitory concentration (MIC). Background: Agar dilution tests growth on a series of plates holding different concentrations.
Data set [4] relates to HCT116 (colon) carcinoma cell line. Nature of the data set: Anti-tumor properties, MTT. The format is cell-based. The following applies: Homo sapiens, HCT-116; HCT116, 100 μM, 72 h; read-out: Percentage growth of tumor cell lines treated with the tested compounds (±SD). The procedure:
(§1) Anti-tumor properties of curcumin conjugates were evaluated. The synthesized curcumin-amino acid conjugates and curcumin itself were screened for their antitumor properties against human tumor cell lines utilizing HepG2 (hepatocellular), MCF7 (breast), and HCT116 (colon) carcinoma cell lines by the standard mitochondrial dependent reduction of yellow MTT [3-(4,5-dimethylthiazol-2-yl)-2,5-diphenyl-tetrazolium bromide] to purple formazan technique. Cancer cells were obtained from the Egyptian Company for Production of Vaccines, Sera and Drugs (VACSERA), Cairo, Egypt. Media, chemicals and supplies for the bio-assay were obtained from Biowest, Gibco and Lonza Companies. Cells were suspended in RPMI-1640 medium for HepG2, DMEMF12 for MCF-7, and DMEM for HCT116 in addition to 1% antibiotic-antimycotic mixture (10 […] potassium penicillin, 10 […] streptomycin sulfate and […] amphotericin B), 10% fetal bovine serum and 1% L-glutamine at 37° C., under 5% CO2 and 95% humidity. Cells were seeded at a concentration of 10×10^3 cells per well in fresh complete growth medium in 96-well tissue culture microtiter plates for 24 h. Media was aspirated, 180 μL fresh medium (without serum) were added and cells were incubated with different concentrations of sample to give a final concentration of 100 μM. 0.5% DMSO was used as a negative control and doxorubicin was used as a positive control (standard reference). Triplicate wells were prepared for each individual tested compound/dose. After 72 h of incubation, the medium was aspirated, 40 μL MTT salt (2.5 mg ml^1) were added to each well and incubated for an additional 4 h at 37° C. To stop the reaction and dissolve the formed crystals, 200 μL of 10% sodium dodecyl sulfate (SDS) in deionized water were added to each well and incubated overnight at 37° C. The absorbance was then measured at 595 nm with a reference wavelength of 620 nm. Data were collected as mean values for experiments performed in triplicates for each compound which had been measured by MTT assay.
(§2) The percentage of cell survival was calculated according to equation (4): […]
(§3) The IC50 was determined using Graph-Pad PRISM version-5 software. Statistical calculations for determination of the mean and standard deviation (SD) values were determined by SPSS 16 software.

In data set [5] the test system is HepG2 (hepatocellular) carcinoma cell line. Nature of the data set: Anti-tumor properties, MTT. Format: cell-based. The note with it: Homo sapiens; HepG2, 100 μM, 72 h; read-out: Percentage growth of tumor cell lines treated with the tested compounds (±SD). The procedure:
as §1, §2, §3

Data set [6] has as its system MCF7 (breast) carcinoma cell line. Nature of the data set: Anti-tumor properties, MTT. The format is cell-based. The note with it: Homo sapiens; MCF7, 100 μM, 72 h; read-out: Percentage growth of tumor cell lines treated with the tested compounds (±SD). The protocol:
as §1, §2, §3

The next data set concerns MCF-7 cells. Description: Effect on doxorubicin induced cytotoxicity (MTT). The note with it: for Percentage of viable cells MCF-7 (average ± SD): 10 μM DOX in combination with 100 μM curcumin derivative, 48 hr; for viability at 100 µM: Homo sapiens, MCF7, 48 h, read-out: Percentage of viable cells MCF-7 (average ± SD). The protocol:
The effects of curcumin conjugates on doxorubicin induced cytotoxicity were evaluated. In order to further examine whether curcumin derivatives can enhance conventional chemotherapeutic agents, MCF-7 cells were treated with 100 μM curcumin derivatives alone or in combination with 10 μM doxorubicin (DOX) for 48 hr. Control cultures received only medium, vehicle (DMSO), or vehicle+DOX. The percentage of viable cells was determined by MTT assay according to equation (5): […]

The test system of data set [7] is Staphylococcus aureus ATCC25923. Description: Antimicrobial MIC, agar dilution.
Data set [8] relates to Streptococcus pyogenes ATCC19615. Description: Antimicrobial MIC, agar dilution.
Data set [9] deals with Pseudomonas aeruginosa ATCC27853. Nature of the data set: Antimicrobial MIC, agar dilution.
In data set [10] the test system is Candida albicans (local isolate). Description: Antimicrobial MIC, agar dilution. The following applies: Candida albicans, read-out: Minimum inhibitory concentration (MIC).
Setting [11] is: ATCC25923, 18 h, read-out: Minimum inhibitory concentration (MIC).
The mark [12] stands for this setting: ATCC25923, read-out: Minimum inhibitory concentration (MIC).
The mark [13] stands for this setting: ATCC19615, 18 h, read-out: Minimum inhibitory concentration (MIC).
[14] abbreviates: ATCC19615, read-out: Minimum inhibitory concentration (MIC).
[15] abbreviates: ATCC27853, 18 h, read-out: Minimum inhibitory concentration (MIC).
Setting [16] is: ATCC27853, read-out: Minimum inhibitory concentration (MIC).

Results on four molecules are retold here after patent publication US10660967B2, “Curcumin conjugates and methods of use thereof” (priority 2016, dated 2020).

Where two headings read alike, the source gives them in different places.

For `COc1cc(/C=C/C(=O)CC(=O)/C=C/c2ccc(OC(=O)[C@H](CC(C)C)NC(=O)OCc3ccccc3)c(OC)c2)ccc1OC(=O)[C@H](CC(C)C)NC(=O)OCc1ccccc1` [Cbz-Leu-Cur, ((1E,6E)-3,5-dioxohepta-1,6-diene-1,7-diyl)bis(2-methoxy-4,1-phenylene) (2S,2′S)-bis(2-(((benzyloxy)carbonyl)amino)-4-methylpentanoate)], the “Stimulation Index (average ± SD)” value in data set [1] is given as 2.83 ± 0.17. Also, in [2], the “Potency (%): % inhibition of nitric oxide production relative to lipopolysaccharide-stimulated macrophages” value worked out at 4.57%. For the same molecule, the “Nitric oxide (nitrite) concentration, μM (average ± SD)” value (shortened to “Nitric oxide … (average ± SD)”) in [2] came to 26.06 ± 0.65 µM. The MIC in [3] (18 h) amounted to 0.25 µg/mL; in data set [3] it was 0.29 µM; in [7] (setting [11]), 0.125 µg/mL; in data set [7] (setting [12]), 0.145 µM; in [8] (setting [13]), 0.125 µg/mL; in data set [8] (setting [14]) it was 0.145 µM. Moreover, the MIC in data set [9] (setting [15]) stood at 0.125 µg/mL; in [9] (setting [16]), 0.145 µM; in [10] (18 h), 0.5 µg/mL; in [10] it was 0.579 µM. The activity at 100 µM turned out to be 94.7 ± 5.8% in data set [4], 85.1 ± 5.7% in [5] and 85.7 ± 1.2% in [6]. Further, the “Percentage of viable cells MCF-7 (average ± SD)” value (“Percentage … (average ± SD)” below) in the data set on MCF-7 cells was 50.17 ± 4.94. Moreover, the viability at 100 µM in the data set on MCF-7 cells came to 98.2 ± 3.44%.

In the case of `COc1cc(/C=C/C(=O)CC(=O)/C=C/c2ccc(OC(=O)[C@H](C)NC(=O)OCc3ccccc3)c(OC)c2)ccc1OC(=O)[C@H](C)NC(=O)OCc1ccccc1` [Cbz-Ala-Cur, ((1E,6E)-3,5-dioxohepta-1,6-diene-1,7-diyl)bis(2-methoxy-4,1-phenylene) (2S,2′S)-bis(2-(((benzyloxy)carbonyl)amino)propanoate)], in data set [1], the “Stimulation Index (average ± SD)” value is 2.70 ± 0.25. For the same molecule, the “Potency (%): % inhibition of nitric oxide production relative to lipopolysaccharide-stimulated macrophages” value in [2] is 8.86%. In addition, in [2], the “Nitric oxide … (average ± SD)” value is 24.89 ± 1.65 µM. The MIC in data set [3] (18 h) was determined as 0.5 µg/mL; in data set [3] it was 0.642 µM; in data set [7] (setting [11]) it was 0.25 µg/mL; in data set [7] (setting [12]), 0.321 µM; in [8] (setting [13]), 0.125 µg/mL; in data set [8] (setting [14]), 0.161 µM. Further, the MIC in data set [9] (setting [15]) stood at 2 µg/mL; in data set [9] (setting [16]), 2.57 µM; in data set [10] (18 h) it was 2 µg/mL; in data set [10], 2.57 µM. Further, the activity at 100 µM stood at 86.6 ± 6.2% in data set [4], 82.3 ± 4.2% in [5] and 70 ± 4.1% in data set [6]. Moreover, the “Percentage … (average ± SD)” value with MCF-7 cells is 46.65 ± 2.06. Also, the viability at 100 µM in the data set with MCF-7 cells turned out to be 99.5 ± 4.47%.

As for `COc1cc(/C=C/C(=O)CC(=O)/C=C/c2ccc(OC(=O)[C@H](CC(C)C)NC(=O)OCC3c4ccccc4-c4ccccc43)c(OC)c2)ccc1OC(=O)[C@H](CC(C)C)NC(=O)OCC1c2ccccc2-c2ccccc21` [Fmoc-Leu-Cur, ((1E,6E)-3,5-dioxohepta-1,6-diene-1,7-diyl)bis(2-methoxy-4,1-phenylene) (2S,2′S)-bis(2-((((9H-fluoren-9-yl)methoxy)carbonyl)amino)-4-methylpentanoate)], the “Stimulation Index (average ± SD)” value in data set [1] worked out at 2.16 ± 0.13. Besides, the “Potency (%): % inhibition of nitric oxide production relative to lipopolysaccharide-stimulated macrophages” value in data set [2] was found to be 21.88%. Besides, the “Nitric oxide … (average ± SD)” value in [2] is 21.34 ± 0.86 µM. The MIC in [3] (18 h) amounted to 0.5 µg/mL; in data set [3] it was 0.481 µM; in data set [7] (setting [11]), 0.25 µg/mL; in data set [7] (setting [12]) it was 0.241 µM; in data set [8] (setting [13]), 0.5 µg/mL; in [8] (setting [14]), 0.481 µM. Besides, the MIC turned out to be 0.25 µg/mL in data set [9] (setting [15]), 0.241 µM in data set [9] (setting [16]), 0.5 µg/mL in data set [10] (18 h) and 0.481 µM in data set [10]. Besides, the figures for the activity at 100 µM in data set [4], in [5] and in [6] were 99.5 ± 3.8%, 103 ± 2.6% and 83 ± 1.1%, respectively. In addition, the “Percentage … (average ± SD)” value in the data set on MCF-7 cells came to 41.16 ± 2.33. The viability at 100 µM with MCF-7 cells turned out to be 98.2 ± 2.98%.

For the molecule `COc1cc(/C=C/C(=O)CC(=O)/C=C/c2ccc(OC(=O)[C@H](C)NC(=O)OCC3c4ccccc4-c4ccccc43)c(OC)c2)ccc1OC(=O)[C@H](C)NC(=O)OCC1c2ccccc2-c2ccccc21` [Fmoc-Ala-Cur, ((1E,6E)-3,5-dioxohepta-1,6-diene-1,7-diyl)bis(2-methoxy-4,1-phenylene) (2S,2′S)-bis(2-((((9H-fluoren-9-yl)methoxy)carbonyl)amino)propanoate)], in data set [1], the “Stimulation Index (average ± SD)” value was 2.22 ± 0.41. The “Potency (%): % inhibition of nitric oxide production relative to lipopolysaccharide-stimulated macrophages” value in [2] came to 20.22%. Also, in [2], the “Nitric oxide … (average ± SD)” value came to 21.79 ± 2.71 µM. Moreover, the MIC in [3] (18 h) is 0.25 µg/mL; in data set [3] it was 0.262 µM; in data set [7] (setting [11]), 0.5 µg/mL; in [7] (setting [12]), 0.524 µM; in [8] (setting [13]), 0.5 µg/mL; in [8] (setting [14]), 0.524 µM. Further, the MIC in data set [9] (setting [15]) stood at 0.25 µg/mL; in [9] (setting [16]), 0.262 µM; in [10] (18 h), 1 µg/mL; in [10] it was 1.05 µM. For the same molecule, the results for the activity at 100 µM in data set [4], in data set [5] and in data set [6] were 96.9 ± 3.2%, 78.3 ± 5.1% and 73.6 ± 2.2%, respectively. Further, the viability at 100 µM with MCF-7 cells was 99.2 ± 3.65%.
